Data as given in US11440905B2, “Biheterocyclic compound” (SUMITOMO PHARMA CO., LTD., priority 2016, dated 2022).

Key:
[1] = test system: dry eye-model rat associated with the dysfunction of corneal nerves; experiment: Drug evaluation for the dysfunction of corneal nerves in dry eye rat model (Test 4); assay type: in vivo; conditions: lacrimal gland excision plus streptozotocin 55 mg/kg i.p.; eye drop 1 μL per shot, 6 times per day, 4 weeks; 0.3% HA, 3% DQS, 0.1% Example 3
Method: Drug Evaluation for the Dysfunction of Corneal Nerves in Dry Eye Rat Model
Male SD rat was anesthetized with inhalational isoflurane. The exorbital lacrimal gland thereof was excised, and at the same day, streptozotocin was administered intraperitoneally to the rat (55 mg/kg) to prepare a dry eye-model rat associated with the dysfunction of corneal nerves. Several weeks after the operation, 0.3% HA ophthalmic solution, 3% DQS ophthalmic solution, and 0.1% the ophthalmic solution of the present compound (Example 3) were administered to the rat in an awareness at 1 μL per shot, 6 times per day, for 4 weeks.
The cornea of the rat was softly held by hand. The drug effect for the dysfunction of corneal nerves was evaluated through blink reflex by contacting the cornea with the nylon filament of cochet-bonnet corneal esthesiometer. First, the tip of the nylon filament (length: 60 mm, diameter: 0.12 mm) was made to almost-vertically contact with the center of cornea, and the nylon filament was made to curve a little. […]
The statistical significance for the drug effect was evaluated by confirming that P value is less than 5% in Student's t test between the intact group and the PBS group, and then carrying out Student's t test between the intact group and the present compound group. […]

[2] = target: T1, mouse semaphorin 3A (Sema3A) (Mus musculus, UniProt O08665); experiment: Inhibitory activity for the collapse activity caused by Sema3A (growth cone collapse assay, Test 1); assay type: cell-based; conditions: chick embryo dorsal root ganglion, 3 units/mL mouse Sema3A, smaller value = more potent inhibition, read-out: residual ratio (%) of Sema3A activity (collapse assay); for remaining activity at 1 µM: 1 μM test compound
T1 sequence (O08665 21-772): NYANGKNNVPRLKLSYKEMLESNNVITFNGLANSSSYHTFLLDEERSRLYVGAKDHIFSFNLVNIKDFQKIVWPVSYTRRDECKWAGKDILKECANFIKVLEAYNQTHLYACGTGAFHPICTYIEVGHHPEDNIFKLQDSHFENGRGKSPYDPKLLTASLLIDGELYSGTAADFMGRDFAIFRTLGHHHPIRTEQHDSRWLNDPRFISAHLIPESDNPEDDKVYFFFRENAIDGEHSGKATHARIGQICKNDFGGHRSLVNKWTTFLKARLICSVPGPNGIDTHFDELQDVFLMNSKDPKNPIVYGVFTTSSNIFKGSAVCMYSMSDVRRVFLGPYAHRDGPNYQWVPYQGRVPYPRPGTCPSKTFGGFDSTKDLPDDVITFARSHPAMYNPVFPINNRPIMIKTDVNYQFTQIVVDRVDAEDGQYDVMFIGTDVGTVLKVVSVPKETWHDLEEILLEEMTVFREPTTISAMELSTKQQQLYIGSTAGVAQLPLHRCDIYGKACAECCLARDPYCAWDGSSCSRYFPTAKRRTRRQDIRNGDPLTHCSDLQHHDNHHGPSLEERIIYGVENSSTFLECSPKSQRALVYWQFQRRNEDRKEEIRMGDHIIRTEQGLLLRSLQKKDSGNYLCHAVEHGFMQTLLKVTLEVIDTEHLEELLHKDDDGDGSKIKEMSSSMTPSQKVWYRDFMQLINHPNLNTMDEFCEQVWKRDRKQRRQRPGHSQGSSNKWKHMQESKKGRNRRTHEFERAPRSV
Method: Inhibitory Activity for the Collapse Activity Caused by Sema3A
96 well-plate (SUMITOMO BAKELITE CO., LTD.) which was beforehand coated with polylysine was further coated with laminin (10 μL laminin, at room temperature, for 1 hour). To each well was added 100 μL of a medium (F12 medium containing 10% fetal bovine serum, 20 ng/mL NGF, 100 unit/mL penicillin, and 100 μg/mL streptomycin). Dorsal root ganglion harvested from 7-8 day-old chick embryo was inoculated thereto, and the culture medium was cultivated under the condition of 5% CO2 and 37° C. for 16-20 hours. And then, each test compound in various concentrations was added to the medium, each test medium was cultivated for 30 minutes, 3 units/mL mouse semaphorin 3A (Sema3A) was added to each medium, and then each test medium was cultivated for more 30 minutes. Then, glutaraldehyde was added to the medium, in which the final concentration of glutaraldehyde was 1%. The medium was left to stand at room temperature for 15 minutes to make the tissue fragment fixed, and the ratio of the retracted growth cone was measured under a microscope.

[3] = test system: dry eye-model rat (exorbital lacrimal gland excised); experiment: Drug evaluation for corneal disorder in dry eye-model rat (Test 3); assay type: in vivo; conditions: eye drop 1 μL per shot, 6 times per day, 4 weeks
Method: (Test 3) Drug Evaluation for Corneal Disorder in Dry Eye-Model Rat
A model rat whose exorbital lacrimal gland is excised is generally used as a model for evaluating the drug efficacy for corneal disorder caused by dry eye. As for corneal disorder of the rat, hyaluronic acid (HA) and diquafosol sodium (DQS) which are existing drugs, and the present compound (Example 3) were administered to the rat, and each efficacy thereof was evaluated.
Male SD rat was anesthetized with inhalational isoflurane, and the exorbital lacrimal gland thereof was excised to prepare a dry eye-model rat (the conditions to prepare the dry eye-model rat can be changed as necessary, for example, by combining the excision of exorbital lacrimal gland with the medication of streptozotocin or the like). […]
The site of corneal disorder was stained with a fluorescein (FITC) solution, and the extent of the disorder was evaluated with the score gained from the following method. […]
The statistical significance for the drug effect was evaluated by nonparametric Tukey's multiple comparison test, in which the result of each test group was compared with that of the control (intact) group which was not operated by excising exorbital lacrimal gland.

[4] = test system: dry eye-model rat (exorbital lacrimal gland excised); experiment: Drug evaluation for corneal disorder in dry eye rat model (Test 5); assay type: in vivo; conditions: 0.01% to 1% ophthalmic solutions, 1 μL per shot, twice per day, 4 weeks; ** denotes p<0.01
Method: Drug Evaluation for Corneal Disorder in Dry Eye Rat Model
For the corneal disorder in the model rat whose exorbital lacrimal gland is excised, the drug effect was evaluated about hyaluronic acid (HA) which is an existing drug, and the present compound.
Male SD rat was anesthetized with inhalational isoflurane, and the exorbital lacrimal gland thereof was excised to prepare a dry eye-model rat (the conditions to prepare the dry eye-model rat can be changed as necessary, for example, by combining the excision of exorbital lacrimal gland with the medication of streptozotocin or the like). Three weeks after the operation, each vehicle for eye drop (typically phosphate-buffered saline (PBS)), and 0.01%, 0.1%, and 1% the ophthalmic solutions of the present compound (Example 19) were administered to the rat in an awareness at 1 μL per shot, twice per day, for 4 weeks.
The scoring of disorder extent in the site of corneal disorder was evaluated with 4 grades of the evaluation criteria of 0-3 according to Test 3.
The statistical significance for the drug effect was evaluated by nonparametric Tukey's multiple comparison test, in which the result of each test group was compared with that of the vehicle-administration group (PBS) in which the rat's exorbital lacrimal gland is excised.

Row | SMILES | therapeutic effect for the dysfunction of corneal nerves (corneal perception, blink reflex, Cochet-Bonnet esthesiometer) [1] | remaining activity at 1 µM [2] | therapeutic effect for corneal disorder caused by dry eye (fluorescein staining score 0-3) ([3]; 0.3% HA, 3% DQS, Example 3 ophthalmic solution, compared with intact group) | improvement of corneal disorder compared with the vehicle-administration group (PBS) ([3]; ** denotes p<0.01) | remaining activity at 3 µM ([2]; 3 μM test compound) | improvement for corneal disorder (fluorescein staining score 0-3) vs vehicle-administration group (PBS) [4]
1 | Cn1cc(-c2coc3cc(O)c(O)c(C(=O)OCc4cn(CC(=O)N[C@@H](CCC(=O)O)C(=O)O)nn4)c3c2=O)c(=O)c2cc(O)c(O)cc21 [Example 3, N-({4-[({[3-(6,7-Dihydroxy-1-methyl-4-oxo-1,4-dihydroquinolin-3-yl)-6,7-dihydroxy-4-oxo-4H-chromen-5-yl]carbonyl}oxy)methyl]-1H-1,2,3-triazol-1-yl}acetyl)-L-glutamic acid] | marked therapeutic effect | 4% | potent therapeutic effect | significant improvement |  | 
2 | Cn1cc(-c2coc3cc(O)c(O)c(C(=O)OCC(=O)N[C@@H](CCC(=O)O)C(=O)O)c3c2=O)c(=O)c2cc(O)c(O)cc21 [Example 19, N-[({[3-(6,7-Dihydroxy-1-methyl-4-oxo-1,4-dihydroquinolin-3-yl)-6,7-dihydroxy-4-oxo-4H-chromen-5-yl]carbonyl}oxy)acetyl]-L-glutamic acid] |  | 4.2% |  |  | 0% | marked improvement
